Results on two molecules are retold here after US6683103B2, “Sulfonamides for treatment of endothelin-mediated disorders” (Texas Biotechnology Corporation, priority 1997, dated 2004).

In general, Papp refers to the rate of passage across a membrane or cell layer, normalised by area and donor concentration. Higher therefore signals ready permeation.

Data set [1] is described as follows: Papp (Table 4). The format is in vitro ADME.
The subject of data set [2] is DOCA-salt hypertensive rat. Kind of data set: Deoxycorticosterone acetate (DOCA)-salt hypertensive rat model. Type of data set: in vivo. On the procedure:
E. Deoxycorticosterone Acetate (DOCA)-Salt Hypertensive Rat Model for Assessing in vivo Activity of Selected Compounds
Selected compounds disclosed herein have been tested for activity in the deoxycorticosterone acetate (DOCA)-salt hypertensive rat model. To perform these tests, silastic MDX4-4210 elastomer implants containing 47 mg (DOCA) were prepared according to the method of Ornmsbee et al. ((1973) the J. Pharm. Sci. 62:255-257). Briefly, DOCA is incorporated into silicon rubber implants for sustained release. To prepare the implants the DOCA is incorporated into unpolymerized silicone rubber, catalyst is added and the mixture is cast in a hemicylindrical shape.
Sprague Dawley rats (7-8 weeks old) were unilaterally nephrectomized under ketamine anesthesia and a DOCA-implant was placed on the left lateral dorsal abdomen of the animal. The rats were allowed to recover for three weeks. During recovery they were permitted free access to normal rat chow and 0.9% NaCl drinking solution in place of drinking water. The rats develop hypertension within 3 weeks.
All animals were used in the tests between 21 and 30 days post surgery. The mean arterial blood pressure in these animals ranged from 165-200 mm Hg.
On the day of experimentation, catheters were inserted under brevital anesthesia into the right femoral artery for measurement of blood pressure, and into the right femoral vein for administration of a selected compound. The animals were placed in a restrainer and allowed to recover for a minimum of 60 min or until a steady mean arterial blood pressure was recorded. At that time, the selected compound or control vehicle was administered either intravenously, as a 60 minute infusion, or orally by oral gavage. Blood pressure was recorded continuously for a further 10 hrs.

For the molecule `Cc1cc2c(cc1CC(=O)c1sccc1S(=O)(=O)Nc1onc(C)c1Cl)OCO2` [N-(4-chloro-3-methyl-5-isoxazolyl)-2-[2-methyl-4,5-(methylenedioxy)phenylacetyl]thiophene-3-sulfonamide], the Papp in data set [1] worked out at 2.32 ×10⁻⁶ cm/s. Regarding `Cc1noc(NS(=O)(=O)c2ccsc2C(=O)Cc2ccc3c(c2)OCO3)c1Cl` [N-(4-chloro-3-methyl-5-isoxazolyl)-2-[(3,4-(methylenedioxy)phenylacetyl]thiophene-3-sulfonamide], the “effect on blood pressure” value in data set [2] is “effective in decreasing blood pressure”.
